Values after ≈ are worked out from the molar mass of the structure shown. Like-named read-outs stand apart in the source and are kept apart here.
Experiments:
Assay type in all cases: cell-based
[1] = test system: Staphylococcus hominis; test: Minimum Inhibitory Concentration (MIC) Method B, DIN 58940; Synergy Index according to Kull; details: Method B (Example 5), S. hominis, single substance
Method: (§1) B) Minimum Inhibitory Concentration (MIC) Method B
(§2) Test conditions: Evaluation of bactericidal and fungicidal activity in qualitative suspension test (VAH-standard methods, 04-2015). 5 ml of the appropriate dilution of the test product is mixed with 0.1 ml of test suspension and mixed well. After the required action times, the mixture was mixed again. Each 0.1 ml were removed and placed in 5 ml of CSL-bouillon without neutralizing agents.
(§3) In order to calculate the synergy index with MIC values, the Kull equation (I) was used as follows:
(§4) SI=(MICmixture×PA)/MICA+(MICmixture×PB)/MICB (I)
(§5) The synergistic activity of 3-hydroxypropyl caprylate and glyceryl caprylate on several bacterial and fungal reference strains for application in either Deodorant application or as preservative was determined by measuring minimum inhibitory concentrations (MIC values) according to DIN 58940 and method B (method section above).

[2] = test system: Aspergillus brasiliensis; test: as above; details: Method B (Example 5), A. brasiliensis, single substance
Method: as §1, §2, §3, §4, §5

[3] = test system: Escherichia coli; test: as above; details: Method B (Example 5), E. coli, single substance
Method: as §1, §2, §3, §4, §5

[4] = test system: Corynebacterium xerosis; test: as above; details: Method B (Examples 3, 5, 6), C. xerosis, single substance
Method: as §1
(§6) 5 ml of the appropriate dilution of the test product is mixed with 0.1 ml of test suspension and mixed well. After the required action times, the mixture was mixed again. Each 0.1 ml were removed and placed in 5 ml of CSL-bouillon without neutralizing agents.
as §3, §4

[5] = test system: Aspergillus brasiliensis; test: Minimum Inhibitory Concentration (MIC) Method A
Method: (§7) A) Minimum Inhibitory Concentration (MIC) Method A
(§8) The MIC test is a test on growth inhibition. Estimation of Minimum Inhibitory Concentration (MIC) is executed in 96 well plates. Through the comparison of bacterial growth curves with positive and negative controls via optical density (OD), different concentrations of given test substances are evaluated.
(§9) Bacteria are cultivated under adjusted conditions based on information of the German Collection of Microorganisms and Cell Cultures (DSMZ) and stored in 50% Glycerol prior to use. Afterwards, the following method was applied:
(§10) Adding growth medium (according to microorganism) to each well of the microplate.
(§11) Adding the test-substances in different concentrations, positive controls (water controls only with medium) and negative controls (benchmarks according to organism).
(§12) Adding the microorganism in a concentration of 10^6 CFU/ml (CFU=colony forming units). Incubation of the microplates at appropriate conditions.
(§13) Aerobic microorganism: optical density is continuously measured (microplate reader) during incubation.
(§14) According to resulting growth curves, substance concentrations are labelled either as inhibiting or normal growth and MIC is defined as the lowest concentration where a clear inhibition is visible. Experiments at concentration limits (highest concentration labelled as growth and lowest concentration labelled as inhibiting) are performed at least twice.

[6] = test system: Staphylococcus aureus; test: Minimum Inhibitory Concentration (MIC) Method A
Method: as §7, §8, §9, §10, §11, §12, §13, §14

[7] = test system: Staphylococcus epidermidis; test: Minimum Inhibitory Concentration (MIC) Method A
Method: as §7, §8, §9, §10, §11, §12, §13, §14

[8] = test system: Corynebacterium xerosis; test: Minimum Inhibitory Concentration (MIC) Method A
Method: (§15) A) Minimum Inhibitory Concentration (MIC) Method A The MIC test is a test on growth inhibition. Estimation of Minimum Inhibitory Concentration (MIC) is executed in 96 well plates. Through the comparison of bacterial growth curves with positive and negative controls via optical density (OD), different concentrations of given test substances are evaluated. Bacteria are cultivated under adjusted conditions based on information of the German Collection of Microorganisms and Cell Cultures (DSMZ) and stored in 50% Glycerol prior to use. Afterwards, the following method was applied: Adding growth medium (according to microorganism) to each well of the microplate. Adding the test-substances in different concentrations, positive controls (water controls only with medium) and negative controls (benchmarks according to organism). Adding the microorganism in a concentration of 10^6 CFU/ml (CFU=colony forming units). Incubation of the microplates at appropriate conditions. Aerobic microorganism: optical density is continuously measured (microplate reader) during incubation. Anaerobic microorganism: incubation in an anaerobic chamber, measurement of the optical density at the end of the incubation, comparison of the results with positive and negative controls. According to resulting growth curves, substance concentrations are labelled either as inhibiting or normal growth and MIC is defined as the lowest concentration where a clear inhibition is visible. Experiments at concentration limits (highest concentration labelled as growth and lowest concentration labelled as inhibiting) are performed at least twice.

[9] = test system: Escherichia coli; test: Minimum Inhibitory Concentration (MIC) Method A
Method: as §7, §8, §9, §10, §11, §12, §13, §14

[10] = test system: Pseudomonas aeruginosa; test: Preservative Efficacy Test (method C); details: P. aeruginosa; for Colony counts: 1% test substance in o/w emulsion; for Relative colony counts: relative to inoculum = 1.0000
Method: (§16) C) Preservative Efficacy Test
(§17) Test conditions: Sample (1% test substance in adequate formulation (o/w emulsion)) was inoculated with 0.1 ml of the microbial suspensions, homogenized, and incubated at 20° C.-25° C. Colony count was determined after 2, 7, 14, and 28 days of incubation through plating on adequate solid medium.
(§18) 3-hydroxypropyl caprylate was tested in a potential formulation against the microorganisms Escherichia coli, Pseudomonas aeruginosa, Staphylococcus aureus, and Candida albicans using method C. Resulting colony counts are depicted in Table 4.

[11] = test system: Candida albicans; test: Preservative Efficacy Test (method C)
Method: as §16, §17, §18

[12] = test system: Staphylococcus aureus; test: Preservative Efficacy Test (method C); details: S. aureus; for Colony counts: 1% test substance in o/w emulsion; for Relative colony counts: relative to inoculum = 1.0000
Method: as §16, §17, §18

[13] = test system: Escherichia coli; test: Preservative Efficacy Test (method C); details: E. coli; for Colony counts: 1% test substance in o/w emulsion; for Relative colony counts: relative to inoculum = 1.0000
Method: as §16, §17, §18

[14] = test system: Trichophyton rubrum; test: Minimum Inhibitory Concentration (MIC) Method B
Method: as §2, with “B) Minimum Inhibitory Concentration (MIC) Method B Test” for “Test”

[15] = test system: Streptococcus mutans; test: Minimum Inhibitory Concentration (MIC) Method B
Method: as §2, with “B) Minimum Inhibitory Concentration (MIC) Method B Test” for “Test”

[16] = test system: Gardnerella vaginalis; test: Minimum Inhibitory Concentration (MIC) Method B
Method: as §2, with “B) Minimum Inhibitory Concentration (MIC) Method B Test” for “Test”

[17] = test system: Streptococcus agalactiae; test: Minimum Inhibitory Concentration (MIC) Method B
Method: as §2, with “B) Minimum Inhibitory Concentration (MIC) Method B Test” for “Test”

[18] = test system: Peptoniphilus lacrimalis; test: Minimum Inhibitory Concentration (MIC) Method B
Method: as §2, with “B) Minimum Inhibitory Concentration (MIC) Method B Test” for “Test”

[19] = test system: Fannyhessea vaginae (Atopobium vaginae); test: Minimum Inhibitory Concentration (MIC) Method B
Method: as §2, with “B) Minimum Inhibitory Concentration (MIC) Method B Test” for “Test”

[20] = test system: human sebaceous glands; test: Sebum secretion in cultured micro-dissected human sebaceous glands; details: human sebaceous glands of Donor 1 and Donor 2; six days culture; different concentrations; vs untreated control
Method: Additional tests were performed with human sebaceous glands in order to verify the modulatory activity of a compound on sebum secretion. For this sebaceous glands had been micro-dissected and cultured with medium. The medium without any supplement served as untreated control. Medium with 5 μM Capsaicin served as positive control. Additionally, culture medium was supplemented with different concentrations of 3-hydroxypropyl caprylate. After six days the sebaceous glands were collected and lipids and proteins quantified. The total lipid amount being representative of sebum production was obtained by normalizing the quantified lipids upon the quantified proteins (i.e. mg of lipids/mg of proteins).

[21] = test system: Epidermophyton floccosum; test: Minimum Inhibitory Concentration (MIC) Method B, DIN 58940; Synergy Index according to Kull; details: single substance
Method: as §1, §6, §3, §4
SI is the Synergy Index according to Kull
MICA is the MIC value for Substance A
MICB is the MIC value for Substance B
MICmixture is the MIC value for the mixture of substances A and B
PA is the proportion of the substance A in the mixture
PB is the proportion of the substance B in the mixture

[22] = test system: Candida albicans; test: Minimum Inhibitory Concentration (MIC) Method A
Method: as §15

[23] = test system: Fusobacterium nucleatum; test: Minimum Inhibitory Concentration (MIC) Method A
Method: as §15

[24] = test system: Staphylococcus hominis; test: Minimum Inhibitory Concentration (MIC) Method A
Method: as §15

[25] = test system: Prevotella intermedia; test: Minimum Inhibitory Concentration (MIC) Method A
Method: as §15

[26] = test system: Porphyromonas gingivalis; test: Minimum Inhibitory Concentration (MIC) Method A
Method: as §15

## CCCCCCCC(=O)OCC(O)CO (stereo not drawn) [glyceryl caprylate, reference compound]
[1]
  MIC: 1000 µg/mL
[2]
  MIC: 2500 µg/mL
[3]
  MIC: 2500 µg/mL
[4]
  MIC: 1000 µg/mL

## C=CCCCCCCCCC(=O)OCCCO [3-hydroxypropyl undecylenate]
[5]; read-out: MIC
  MIC: 500 µg/mL (≈ 2060 µM)
[6]; read-out: MIC
  MIC: 500 µg/mL (≈ 2060 µM)
[7]; read-out: MIC
  MIC: 64 µg/mL (≈ 264 µM)
[8]; read-out: MIC
  MIC: 250 µg/mL (≈ 1030 µM)

## CC(C)(O)CCc1ccccc1 [Dimethyl Phenylbutanol, reference compound]
[5]
  MIC: 2500 ppm
[6]
  MIC: 1000 ppm
[9]
  MIC: 2500 ppm
[7]
  MIC: 1000 ppm

## CCCCCCCC(=O)OCCCO [3-hydroxypropyl caprylate]
[1]
  MIC: 1000 µg/mL
[2]
  MIC: 1000 µg/mL
[3]
  MIC: 1000 µg/mL
[10]; Day 2, inoculum 4400000
  Colony counts: >10 cfu/g formulation
[10]; Day 2
  Relative colony counts: 0.0000
[10]; Day 7
  Colony counts: >10 cfu/g formulation
  Relative colony counts: 0.0000
[10]; Day 14
  Colony counts: >10 cfu/g formulation
  Relative colony counts: 0.0000
[10]; Day 28
  Colony counts: >10 cfu/g formulation
  Relative colony counts: 0.0000
[11]; Day 2, 1% test substance in o/w emulsion, inoculum 4200000
  Colony counts: 330000 cfu/g formulation
[11]; Day 2, relative to inoculum = 1.0000
  Relative colony counts: 0.0786
[11]; Day 7, 1% test substance in o/w emulsion
  Colony counts: >10 cfu/g formulation
[11]; Day 7, relative to inoculum = 1.0000
  Relative colony counts: 0.0000
[11]; Day 14, 1% test substance in o/w emulsion
  Colony counts: >10 cfu/g formulation
[11]; Day 14, relative to inoculum = 1.0000
  Relative colony counts: 0.0000
[11]; Day 28, 1% test substance in o/w emulsion
  Colony counts: >10 cfu/g formulation
[11]; Day 28, relative to inoculum = 1.0000
  Relative colony counts: 0.0000
[12]; Day 2, inoculum 3500000
  Colony counts: 250000 cfu/g formulation
[12]; Day 2
  Relative colony counts: 0.0714 fraction of inoculum
[12]; Day 7
  Colony counts: >10 cfu/g formulation
  Relative colony counts: 0.0000 fraction of inoculum
[12]; Day 14
  Colony counts: >10 cfu/g formulation
  Relative colony counts: 0.0000 fraction of inoculum
[12]; Day 28
  Colony counts: >10 cfu/g formulation
  Relative colony counts: 0.0000 fraction of inoculum
[13]; Day 2, inoculum 4500000
  Colony counts: 15 cfu/g formulation
[13]; Day 2
  Relative colony counts: 0.0000
[13]; Day 7
  Colony counts: >10 cfu/g formulation
  Relative colony counts: 0.0000
[13]; Day 14
  Colony counts: >10 cfu/g formulation
  Relative colony counts: 0.0000
[13]; Day 28
  Colony counts: >10 cfu/g formulation
  Relative colony counts: 0.0000
[14]
  MIC: 500 µg/mL (≈ 2470 µM)
[15]
  MIC: 5000 µg/mL (≈ 24700 µM)
[16]
  MIC: 500 µg/mL (≈ 2470 µM)
[17]
  MIC: 10000 µg/mL (≈ 49400 µM)
[18]
  MIC: 1000 µg/mL (≈ 4940 µM)
[19]
  MIC: 500 µg/mL (≈ 2470 µM)
[20]
  relative change in total lipids (mg of lipids/mg of proteins), representative of sebum production: concentration dependent reduction of total lipids
[5]; read-out: MIC
  MIC: 1000 µg/mL (≈ 4940 µM)
[6]; read-out: MIC
  MIC: 500 µg/mL (≈ 2470 µM)
[9]; read-out: MIC
  MIC: 1000 µg/mL (≈ 4940 µM)
[7]; read-out: MIC
  MIC: 500 µg/mL (≈ 2470 µM)
[21]
  MIC: 500 µg/mL
[8]; read-out: MIC
  MIC: 500 µg/mL (≈ 2470 µM)
[22]
  MIC: 500 µg/mL (≈ 2470 µM)
[23]
  MIC: 250 µg/mL (≈ 1240 µM)
[24]
  MIC: 1000 µg/mL (≈ 4940 µM)
[25]
  MIC: 125 µg/mL (≈ 618 µM)
[26]
  MIC: 250 µg/mL (≈ 1240 µM)

## CC(C)=CCCC(C)=CCCC(C)=CCO [Farnesol]
[4]
  MIC: 16 µg/mL

## C=CCCCCCCCCC(=O)OCC(O)CO (stereo not drawn) [glyceryl monoundecylenate]
[8]
  MIC: low
[8]; read-out: MIC
  MIC: 250 µg/mL (≈ 968 µM)

## CCCCC(O)CO (stereo not drawn) [1,2 Hexanediol]
[21]
  MIC: 10000 µg/mL

## CCCC(O)CO (stereo not drawn) [Pentylene Glycol, 1,2-Pentanediol]
[21]
  MIC: 15000 µg/mL

## CCCCCCC(O)CO (stereo not drawn) [Caprylyl Glycol, 1,2-Octanediol]
[4]
  MIC: 2500 µg/mL
[21]
  MIC: 5000 µg/mL
